Measured values from US20180303092A1, “AMINE SALTS OF CARBOXYLIC ACID HERBICIDES” (Taminco BVBA, priority 2017, published 2018).

Assays:
Type in all cases: physicochemical
[1] = Maximum loading of herbicide amine salt in water (Karl-Fischer water content, HCl titration of amine); conditions: for Max Load amine g/L: amine in maximum loaded solution in water; for Max Load g ae/L: maximum loaded solution in water, acid equivalent of herbicide; for maximum loading: summary text b115
Source text: Neutralizing acidic herbicides (e.g., 2,4-D, dicamba, glyphosate, glufosinate) with amines can result in the formation of highly water soluble salts. However, practical inconveniences may occur when adding liquid amines to the solid herbicides, such as the formation of wetted powder, poorly mixed slurries, two apparently non-mixed layers, etc. To efficiently prepare a salt, the method, shown as a flowchart in FIG. 1, has been developed.
Referring to FIG. 1, step 100 involves using a mass balance to weigh 25 g of the active ingredient (a solid acidic herbicide, such as 2,4-D or dicamba) in a glass bottle. An equimolar amount of a basic amine (typically a liquid) is added to this glass bottle. Last, 2 mL of water is added. After adding the three compounds, the bottle is capped and placed on a shaking device for at least 12 hours.
At step 109, theoretical neutralization has taken place. The salt concentration can be quantified by titration. To confirm that the solid layer is solid salt and the top layer is a saturated (max. loading) solution, a small amount of water is added (the amounts of water should be small enough to avoid a complete dissolution of the solid salt). After re-equilibrium during at least 12 hours of shaking, and under the condition that two phases are still present, the salt concentration is determined again. If salt concentrations are identical as the original values, then it can be concluded that a maximum loaded solution was obtained.
To determine maximum loading of the salt in water, the method shown in the flowchart of FIG. 1 was used. The resulting sample contained at least two layers: a top layer of liquid and a bottom layer of solid salt. A water and amine determination was made of the top layer.
To check the water content, a well-established method of Karl-Fischer was used. This method gives an accurate wt % of H2O in the sample.
To determine the amine content, HCl-titration was used. HCl (0.1 N) was used as the titrant, and methanol was used as the solvent. 100-400 mg of the sample was taken from the liquid layer so that only 10-20 mL of the titrant was needed. The result was given in an EP. The following calculation was used to obtain the amine wt %:
In general, the sample's liquid phase only contains three components: water, free amine, and the herbicide salt. Therefore, the following calculation was used to determine the salt wt %:
wt %salt=100−wt %amine−wt %water
The results below are reported in g a.e./L (acid equivalent). […] The results were calculated using the following equation: […]
The MMs in the equation above are molecular weights (g/mol). ρ is the density of the liquid (g/mL), which may be measured using the density meter Anton Paar DMA 4500. F is a factor that takes into account the amount of base or acid groups on the amine or acid, respectively.
The g amine/L reported below was calculated using the following equation: […]
25.02 g of dicamba herbicide was mixed with 4.16 g of 1,2-DAP and 5.88 g of water. The ingredients were shaken for a minimum of 24 hours at room temperature (20° C.) to obtain an oversaturated salt solution (with precipitated salt crystals). Theoretically, 1 mol of dicamba can be neutralized using 0.5 mol of 1,2-DAP. Water was gradually added until all the salt crystals were dissolved to form a maximum loaded clear solution. The loading of the active ingredient was determined based on the amine content by HCl titration and the water content by Karl-Fischer.
Using the same methodology as described in Example 1, high-loaded 2,4-D salt solutions were prepared.

[2] = Viscosity of max load amine salt solutions (Brookfield viscometer, nr. 87 spindle); conditions: 20° C.
Experimental: The viscosity of the solutions prepared as above was determined using the Brookfield nr. 87 spindle. The applied speed depended on the viscosity of the sample. The torque applied was 50-80% of the machine's maximum. The results are expressed as mPa.
(§1) Several amine herbicide formulations were prepared as described above in Examples 1 and 2. The viscosity of various formulations was measured using a Brookfield viscometer with nr.87 spindle at 20° C. Wettability was measured by visually measuring the contact angle after placing a standard droplet on a parafilm layer (hydrophobic).

[3] = Wetting properties: contact angle of a droplet of max load product on parafilm layer; conditions: droplet on hydrophobic parafilm, read by eye
Experimental: A visual test was used to determine the wetting property. FIG. 2 is an illustration of the test. A small droplet 11 of the max load product mentioned above was deposited by a syringe pointed vertically down onto a parafilm layer 10, which is hydrophobic. A profile picture of the droplet 11 was then captured by a camera. The approximate contact angle 13 of the droplet 11 with the parafilm layer 10 was then measured by eye using a protractor.
The wetting angle determines the surface energy or chemical affinity of the salt solution with the apolar reference material. A high wetting angle indicates a […] of hydrophobic surfaces.
as §1

[4] = dicamba amine salts, room temperature (20° C.)
[5] = dicamba amine salt concentrates

SMILES	Max Load amine g/L ([1]; 2,4-D amine salts)	Max Load g ae/L ([1]; 2,4-D amine salts)	Viscosity ([2]; 2,4-D amine salts)	Wetting Angle ([3]; 2,4-D amine salts)	Max Load amine g/L ([1]; dicamba amine salts)	Max Load g ae/L [1, 4]	Viscosity [2, 5]	Wetting Angle [3, 5]	maximum loading ([1]; dicamba amine salts)	Maximum loading, amine ([1]; dicamba 1,2-DAP salt, Example 1)
C[N+](C)(C)CCO.O=C([O-])COc1ccc(Cl)cc1Cl [2,4-D Cbase salt, reference compound]	315.6 amine g/L	195.0 g ae/L	12.4 mPa	145 °	–	–	–	–	–	–
CN(C)CCO.COc1c(Cl)ccc(Cl)c1C(=O)O [Dicamba DMAE salt]	–	–	–	–	408.3 amine g/L	849.0 g ae/L	184.4 mPa	115 °	–	–
CNC.COc1c(Cl)ccc(Cl)c1C(=O)O [Dicamba DMA salt, reference compound]	–	–	–	–	211.1 amine g/L	1036.8 g ae/L	58.8 mPa	135 °	1036 g/L	–
CNC.O=C(O)COc1ccc(Cl)cc1Cl [2,4-D DMA salt, reference compound]	264.4 amine g/L	936.1 g ae/L	38.8 mPa	130 °	–	–	–	–	–	–
CN(C)CCO.O=C(O)COc1ccc(Cl)cc1Cl [2,4-D DMAE salt]	316.9 amine g/L	624.7 g ae/L	74.0 mPa	105 °	–	–	–	–	–	–
COc1c(Cl)ccc(Cl)c1C(=O)O.NCCOCCO [Dicamba DGA salt, reference compound]	–	–	–	–	435.5 amine g/L	854.9 g ae/L	562.5 mPa	120 °	854.9 g/L	–
CN(C)CCCN.O=C(O)COc1ccc(Cl)cc1Cl [2,4-D DMAPA salt]	210.6 amine g/L	863.5 g ae/L	1,455.0 mPa	125 °	–	–	–	–	–	–
CC(N)CN.COc1c(Cl)ccc(Cl)c1C(=O)O.COc1c(Cl)ccc(Cl)c1C(=O)O [Dicamba 1,2-DAP salt]	–	–	–	–	365.9 amine g/L	803.2 g ae/L	218.0 mPa	105 °	803.2 g/L	365.9 g amine/L
CNCCO.COc1c(Cl)ccc(Cl)c1C(=O)O [Dicamba MMEA salt]	–	–	–	–	357.7 amine g/L	928.8 g ae/L	3,967.0 mPa	120 °	–	–
COc1c(Cl)ccc(Cl)c1C(=O)[O-].C[N+](C)(C)CCO [Dicamba Cbase salt]	–	–	–	–	308.5 amine g/L	481.5 g ae/L	13.5 mPa	115 °	–	–
CC(C)CN.COc1c(Cl)ccc(Cl)c1C(=O)O [Dicamba MIBA salt]	–	–	–	–	475.0 amine g/L	713.7 g ae/L	46.1 mPa	130 °	–	–
CC(C)CN.O=C(O)COc1ccc(Cl)cc1Cl [2,4-D MIBA salt]	183.5 amine g/L	497.8 g ae/L	60.1 mPa	155 °	–	–	–	–	–	–
CNCCO.O=C(O)COc1ccc(Cl)cc1Cl [2,4-D MMEA salt]	302.5 amine g/L	774.3 g ae/L	21.2 mPa	110 °	–	–	–	–	–	–
